Assay results reported in article PMC10970734, “Identification of an Intravenous Injectable NK1 Receptor Antagonist for Use in Traumatic Brain Injury” (International Journal of Molecular Sciences, 2024).

Target: NK1R (Homo sapiens, UniProt P25103)
Assay: Radioligand binding, competition for [3H]SP, CHO cells transfected with human NK1R
Parameters: expressed in transfected cells; host or cells: CHO cells (ATCC)
Conditions: competition for [3H]SP binding (0.6 nM)
Protocol: The affinity of EUC-001 for the human NK1R was assessed by radioligand binding assays using Chinese hamster ovary (CHO) cells transfected with the human NK1R. Radioligand binding studies, evaluating competition for [^3H]
Radioligand binding assays were performed using CHO cells (ATCC, Middlesex, UK) transfected with the human NK1R (accession number NM_001058). Assays were performed in 50 mM HEPES buffer (pH 7.4; Sigma-Aldrich, St Louis, MO, USA) containing BSA (0.04%; Sigma-Aldrich, St Louis, MO, USA), leupeptin (8 μg/mL; Sigma-Aldrich, St Louis, MO, USA), MnCl2 (3 mM; Sigma-Aldrich, St Louis, MO, USA) and phosphoramidon (2 μM; Sigma-Aldrich, St Louis, MO, USA). In total, 250 μL of membrane suspension was incubated with 125 μL of unlabelled EUC-001 (synthesized by Hoffmann-La Roche, Basel, Switzerland) dissolved in assay buffer, and 125 μL of [^3H]SP (final concentration 0.6 nM; Amersham Biosciences, Amersham, UK). Displacement curves were determined with seven concentrations of EUC-001. Following incubation (60 min at room temperature), the mixture was rapidly filtered through pre-soaked Whatman GF/C filters (Sigma-Aldrich, St Louis, MO, USA) and washed with 2 × 2 mL HEPES buffer (Sigma-Aldrich, St Louis, MO, USA), and bound radioactivity was measured by scintillation counting (Beckman Coulter, Brea, CA, USA). Assays were performed in triplicate in 2 separate experiments.

NK1R, sequence (P25103 whole entry): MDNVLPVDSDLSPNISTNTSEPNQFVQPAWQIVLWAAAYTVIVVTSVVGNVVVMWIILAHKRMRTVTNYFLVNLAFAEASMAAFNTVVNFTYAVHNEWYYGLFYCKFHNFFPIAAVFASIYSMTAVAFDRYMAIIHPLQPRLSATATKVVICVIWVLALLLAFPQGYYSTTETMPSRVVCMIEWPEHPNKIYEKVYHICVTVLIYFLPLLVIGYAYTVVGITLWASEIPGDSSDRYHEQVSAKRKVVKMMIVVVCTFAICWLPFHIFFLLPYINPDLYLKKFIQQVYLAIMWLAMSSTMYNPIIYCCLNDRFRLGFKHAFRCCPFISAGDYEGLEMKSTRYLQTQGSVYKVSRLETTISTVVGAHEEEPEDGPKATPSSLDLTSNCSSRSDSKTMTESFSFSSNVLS

Cc1ccccc1-c1cc(N2CCN(C)CC2)ncc1C(=O)N(C)Cc1cc(C(F)(F)F)cc(C(F)(F)F)c1 [EUC-001, N-(3,5-Bis-trifluoromethyl-benzyl)-N-methyl-6-(4-methyl-piperazine-1-yl)-4-o-tolyl-nicotinamide]
Ki: 575 pM
